# Experimental data taken from patent US6121253A, “Prostaglandin conjugates for treating or preventing bone disease” (Merck Frosst Canada & Co., priority 1999, dated 2000).
# Where two headings read alike, the source gives them in different places.
# Legend:
# [1] = In vivo uptake and release in rat tibiae and femora; design: species or system rat (Sprague-Dawley female); settings: single i.v. dose
# Protocol: The animals used in this experiment were sacrificed at 24 hours, 14 and 28 days after the compounds claimed in the instant invention were administered. The radioactivity of the ^14 C and ^3 H was measured after incineration of the long bones to determine the percentage of compound retained in the bone. […] High LP levels are normally associated with the breakdown of bone collagen.
# Both compounds are administered i.v. via the tail vein to Sprague-Dawley female rats as a radiolabelled compound, equivalent to about 0.3 μCi/animal, [^3 H]-alendronate is administered to nine rats and [^3 H]-PGE2 /[^14 C]-ABP (dual labelled conjugate 14), is administered to seven rats. After 1, 14 or 28 days, animals are sacrificed by CO2 inhalation and the tibiae and femora are dissected, weighed and then stored at -20° C. The amount of radioactivity incorporated into the bone is determined by incineration in a Packard combuster after first air drying the bone for three days at ambient temperature. The percent of the compound retained in the skeleton at each time point is calculated on the basis of the radioactivity, converted to nmoles/gm bone on the assumption that the skeleton represents 8% of the body weight. The skeletal retention is expressed as percent administered dose.
# [2] = Uptake/binding of dual-labelled conjugate to human bone powder in fetal bovine serum
# Protocol: Dual-labelled conjugate 14 ([^3 H]-PGE2 /[^14 C]-alendronate) (21.64 μCi of ^14 C and 19.05 μCi of ^3 H) is placed in 1 ml 100% fetal bovine serum to yield a final concentration of 3.5 μM. […] of this solution is incubated with 10 mg bone powder for 1, 2, 3 and 5 mins with vigorous shaking. The mixture is centrifuged (20 sec), 125 μl aliquot is taken from each sample and counted in 10 ml Atomlight in an LKB liquid scintillation counter, 125 μl of the radioactive sample is also counted at 0 time. The uptake of radioactivity into the bone powder is calculated by subtracting the dpms in the medium counted at the times indicated above from dpms at 0 time and this number is divided by the dpms at 0 time.
# [3] = Dissociation/release of label from human bone powder in fetal bovine serum at 37 C; format: in vitro ADME
# Protocol: Dissociation of [^3 H]-PGE2 /[^14 C]-alendronate from human bone powder in fetal bovine serum at 37 C is measured by incubating 10 mg of human one powder with 1 μl [^3 H]-PGE2 /[^14 C]-ABP in 1 ml FBS for 5 mins. The mixture is centrifuged (20 sec), 100 μl aliquot is taken and counted in Atomlight in an LKB liquid scintillation counter. The rest of the 900 μl solution is withdrawn, the bone powder is washed once with 1 ml phosphate buffered saline, 1 ml fresh fetal bovine serum is added and incubated with the bone powder for 15, 24, 39, 48, 59, 79 and 103 hours in a shaking bath at 37° C. 100 μl aliquots are withdrawn at these times and counted in 10 ml Atomlight in an LKB liquid scintillation counter. The release of radioactivity from the human bone powder into the medium is calculated as follows: dpms from 100 μl of the [^3 H]-PGE2 /[^14 C]-ABP at 5 mins are subtracted from dpms at 0 time. The resulting dpms reflect radioactivity taken up by bone powder. The dpms obtained by counting 100 μl aliquots at each time point are then divided by the dpms taken up by bone. 13% of the ^3 H-moiety is released into the medium at 15 hrs and by 103 hours 32.9% of the radioactivity is released into the medium.
# [4] = Characterization of 3H liberated on hydrolysis of conjugate in rat plasma; format: in vitro ADME; settings: conjugate 20, 24 hr, fresh rat plasma, of the initial counts
# Protocol: A stock solution of 0.4 μCi conjugate 20 or [^3 H]-PGE2 (0.4 μCi) is incubated in either fresh rat plasma, boiled plasma or PBS (ml) at 37 C. After 4 h or 24 h, 100 μl aliquots are removed, diluted with acetonitrile (100 μl), vortexed and centrifuged. 100 μl of supernatant is separated by HPLC (C-18, 0.5% HOAc in water, 66%: acetonitrile 33%, 1 ml/min) with effluent monitored by an on-line scintillation detector and UV detector. No radioactivity is eluted under these conditions when 0.2 μCi, conjugate 20 (62 μg) is applied. (It is necessary to mix 0.4 mg of unlabelled 20 with 0.1 μCi labelled 20 to recover 0.05 μCi from the HPLC.) Radioactive peaks are identified by coelution with authentic [^3 H]-PGE2 and cold PGA2. An authentic sample of PGB2 is prepared by incubating PGE2 (2.4 mg) with 1 ml rat plasma at 37° C. for 24 hr. The sample, purified by HPLC, will have appropriate ^1 H-NMR, UV and MS. To identify radioactive peaks eluting at the solvent front with incubation of conjugate 20 for 24 hr in fresh rat plasma, the fraction is collected and distilled. The collected distillate has 60% of the initial counts.
# [5] = 1, 3 and 6 mg/Kg/day PGE2, rapidly growing rats; cited from earlier work
# [6] = long term s.c.; adrenal glands, liver, kidneys, and lungs; cited from earlier work
# [7] = cited from earlier work
# [8] = oral dosing; cited from earlier work
# [9] = cited from earlier work; remark: listed apart in the source
# [10] = s.c. over 60, 120, and 180 days
smiles,measurement,setting,value
"CCCCC[C@@H](/C=C/[C@H]1[C@H](O)CC(=O)[C@@H]1C/C=C\CCCC(=O)O)OC(=O)CSCCCC(P(=O)(O)O)P(=O)(O)O [Conjugate 14, PGE2 bisphosphonate conjugate]",uptake into / delivery to bone in vivo,[1],uptake of the labeled compound shown below into rat tibiae and femora after a single dose was administered intravaneously was demonstrated
same,time of uptake to human bone powder,[2]; in vitro,within one minute
same,uptake of 3H-moiety by human bone powder,[2]; within 1 min,~53%
same,uptake of 14C-moiety by human bone powder,[2]; within 1 min,about 76%
same,uptake of 14C-moiety by human bone powder,"[2]; within 1 min, listed as 14 C/^3 H dual labeled compound",About 77%
same,3H-moiety released into the medium,"[3]; 15 hrs, fetal bovine serum, 37° C.",13%
same,radioactivity released into the medium (3H-moiety),"[3]; 103 hours, fetal bovine serum, 37° C.",32.9%
same,rate of release (disassociation) of PG (3H) moiety from human bone powder,"[3]; fetal bovine serum, 37° C., listed as 14 C/^3 H dual labeled compound",approximately 5 %/day
same,rate of release (disassociation) of PG (3H) moiety from human bone powder,"[3]; fetal bovine serum, 37° C., listed as [^3 H]-PGE2 /[^14 C]-alendronate",About 5 %/day
same,release of the prostaglandin from the bisphosphonate at bone,[3]; radiolabel and radioimmunoassay experiments,confirm release of the prostaglandin from the bisphosphonate at the bone cell site
same,dpms of 14C-moiety in the medium,"[3]; up to 103 hours, fetal bovine serum, 37° C.",not significantly changed
"CCCCC[C@@H](/C=C/[C@H]1[C@H](O)CC(=O)[C@@H]1C/C=C\CCCC(=O)O)OC(=O)CSCc1cc(CSCC(=O)O[C@H](/C=C/[C@H]2[C@H](O)CC(=O)[C@@H]2C/C=C\CCCC(=O)O)CCCCC)cc(CC(P(=O)(O)O)P(=O)(O)O)c1 [Conjugate 20, Bis-(PGE2)-bisphosphonate conjugate]",counts in collected distillate of radioactive peak eluting at solvent front,[4],60%
CCCCC[C@H](O)/C=C/[C@H]1[C@H](O)CC(=O)[C@@H]1C/C=C\CCCC(=O)O [PGE2],hard tissue mass in the secondary spongiosa of the proximal tibial metaphysis,[5],increase in hard tissue mass
same,number of trabeculae,[5],increase in the number of trabeculae
same,soft tissue weight,[6],"soft tissue weight increases in adrenal glands, liver, kidneys, and lungs"
same,periosteal and corticoendosteal bone mass,[7]; daily s.c. administration,increases periosteal and corticoendosteal bone mass
same,bone activity,[7]; [10],elevated bone activity
same,tibial diaphyseal bone mass,[7]; [10],increased tibial diaphyseal bone mass
same,side effects,[8],"loose stools, diarrhea, vomiting, infected sclerae, and increased serum alkaline phosphatase levels"
same,serum phosphate levels,[9]; 1 mg of PGE2,significant decreases
same,side effects,"[9]; s.c., doses of 3 mg/Kg/day or higher, rats",diarrhea and flushing of the extremities along with weight loss
